Measurements from patent US20100286154A1, “ANTIHELMINTIC PASTE” (priority 2007, published 2010).

Assay: Paste stability test (storage in glass containers, assay of active ingredients by HPLC)
Type: physicochemical
Settings: paste composition of Example 2, glass containers
From the text: The paste composition of Example 2 was stored in glass containers at different temperatures for up to 12 months and assay of both active ingredients followed by HPLC analysis at given time points (3-, 6- and 12-months).

Content in % of start value (5° C., 3 month): 102.20%
Content in % of start value (5° C., 6 month): 103.98%
Content in % of start value (5° C., 12 month): 103.56%
Content in % of start value (25° C., 3 month): 102.52%
Content in % of start value (25° C., 6 month): 101.99%
Content in % of start value (25° C., 12 month): 102.73%
Content in % of start value (30° C., 3 month): 100.63%
Content in % of start value (30° C., 6 month): 102.31%
Content in % of start value (30° C., 12 month): 102.62%
Content in % of start value (40° C., 3 month): 101.36%
Content in % of start value (40° C., 6 month): 102.10%
Content in % of start value (40° C., 12 month): 100.94%
SMILES: O=C(C1CCCCC1)N1CC(=O)N2CCc3ccccc3C2C1 (stereo not drawn) [Praziquantel, 2-(cyclohexylcarbonyl)-1,2,3,6,7,11b-hexahydro-4H-pyrazino[2,1-a]isoquinoline-4-one]
